Molecules are shown by their SMILES.

Among the data in the METLIN SMRT retention time set (Domingo-Almenara et al. 2019) are RP-LC retention time values, retold here.

A short description of the series: gradient 5% acetonitrile 3 min, to 50% in 2 min, to 85% in 15 min, held 3 min, 100 µL/min. Conditions: column: Zorbax Extend-C18 2.1 x 50 mm; eluents: water / acetonitrile, 0.1% formic acid. The procedure, abridged: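 Using water and acetonitrile that each contained 0.1% formic acid, mixtures of ~100 pure standards were separated at 100 μL/min on a Zorbax Extend-C18 column (2.1 × 50 mm, 1.8 μm). The HPLC fed a quadrupole time-of-flight mass spectrometer working in positive and negative ionization mode, with dead and dwell volumes of 40 μL and 900 μL. Data were acquired over 3 months. Retention time was read from computationally picked adduct peaks after manual inspection of each.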
Molecule `O=C(COc1ccc(Cl)cc1)Nc1ccc(-c2nc(-c3ccc(F)cc3)no2)cc1` returned an RP-LC retention time of 1260 s.

The molecule `COc1ccc(NC(=O)Nc2cc(-c3cn4cccnc4n3)ccc2OC)cc1` had an RP-LC retention time of 651 s.

`CNC(=O)c1cccc(Nc2c(-c3ccc(Cl)cc3)nc3cnccn23)c1` gave an RP-LC retention time of 692 s.

In the case of `CCN1CCN(CCCNC(=O)C2CCCN(c3nn4c(=O)c5c(nc4s3)CCCC5)C2)CC1` (stereo not drawn), the RP-LC retention time stood at 554 s.

For the molecule `Cc1nn(-c2ccccc2)c(C)c1S(=O)(=O)N1CCC(C(=O)NCc2ccc3c(c2)OCO3)CC1`, the RP-LC retention time was found to be 884 s.

Molecule `COCCNC(=O)N1CCN(c2ncccc2-c2nnc(C(C)C)o2)CC1` gave an RP-LC retention time of 627 s.

As to `O=C(CN1CCN(Cc2ccccc2F)C1=O)N1CCN(c2ccccc2F)CC1`, the RP-LC retention time stood at 857 s.

In turn, `O=C(NCCCN1CCOCC1)c1ccc(OCc2nnc(C(=O)Nc3ccccc3F)s2)cc1` returned an RP-LC retention time of 658 s.

`COc1ccc(CNC(=O)C2c3ccccc3CC(=O)N2C)cc1` (stereo not drawn): the RP-LC retention time stood at 711 s.

With `CCOC(=O)C(C)Sc1nnc(NC(=O)C2CC2)s1` (stereo not drawn), the RP-LC retention time came to 708 s.

`O=C(NCc1cccc(Br)c1)C1CCCN(C(=O)Cc2cccc3ccccc23)C1` (stereo not drawn) registered an RP-LC retention time of 978 s.

In the case of `Cc1cc(C)n2c(Nc3ccccc3)c(-c3ccc(Br)cc3O)nc2n1`, the RP-LC retention time is 1120 s.

As for `CN1CCCn2cc(S(=O)(=O)Nc3ccc4c(c3)OCCO4)cc2C1=O`, the RP-LC retention time worked out at 655 s.

For `C=CCOc1ccc(S(C)(=O)=O)cc1`, the RP-LC retention time was 814 s.

In turn, `COc1ccc(-c2nnc(CC(=O)NCCC3=CCCCC3)o2)cc1` registered an RP-LC retention time of 889 s.

As to `Cc1ccc(CNC(=O)c2cc(-c3ccncc3)cn2Cc2ccccc2C)o1`, the RP-LC retention time turned out to be 749 s.

Take `CC(=O)c1cn(CC(=O)NC(C)c2ccc3c(c2)OCCCO3)c2ccccc12` (stereo not drawn): the RP-LC retention time was found to be 794 s.

Molecule `Cc1cccc(N2CCN(C(=O)CCC3CCN(c4cc(NC5CC5)ncn4)CC3)CC2)c1` had an RP-LC retention time of 717 s.

Molecule `COc1ccc(NC(=O)c2cnc(N3CCN(C)CC3)nc2N)cc1` came in with an RP-LC retention time of 578 s.

On to `CCN1CCCC1CNC(=O)c1cc(S(=O)(=O)CC)c(N)cc1OC` (stereo not drawn), for which the RP-LC retention time stood at 591 s.

`COc1cc([C@@H]2c3cc4c(cc3[C@H](O)[C@@H](CO)[C@@H]2C(=O)Nc2ccc(C)cc2)OCO4)cc(OC)c1OC` displayed an RP-LC retention time of 763 s.

In the case of `Cc1cc(=O)n(CC(=O)NCc2ccc3c(c2)OCO3)c(N2CCOCC2)n1`, the RP-LC retention time was determined as 622 s.

With `CCOC(=O)c1c(C)[nH]c(C(=O)N2CCC(C(C)C(=O)NCc3ccc(OCC)cc3)CC2)c1C` (stereo not drawn), the RP-LC retention time came to 860 s.

Regarding `CCOc1cccc2c1OC1(C)CC2NC(=O)N1c1cccc(C(=O)NCc2cccs2)c1` (stereo not drawn), the RP-LC retention time stood at 790 s.

On to `Cc1nc(-c2ccc(OC3CCN(C(=O)CCc4nc5ccccc5[nH]4)C3)cc2)no1` (stereo not drawn), for which the RP-LC retention time amounted to 643 s.

`CCc1ccc(CN2C(=O)c3c(C(=O)OC)ncn3CC2(C)C(=O)NCc2ccccc2)cc1` (stereo not drawn) showed an RP-LC retention time of 801 s.

Take `CCOC(=O)c1[nH]c(C)c(CCC(=O)N2CCC(C(=O)N3CCCCCC3)CC2)c1C`: the RP-LC retention time came to 774 s.

As to `COc1cc(NC(=O)N2CCC(n3c(C(F)(F)F)nc4cccnc43)CC2)cc(OC)c1`, the RP-LC retention time was determined as 895 s.

For `CCNS(=O)(=O)c1cc(-c2nc(C)cs2)n(C)c1C`, the RP-LC retention time came out at 792 s.

`CC(C)Oc1ccc(-c2noc(Cn3c(=O)n(CCc4ccccc4)c(=O)c4sccc43)n2)cc1` showed an RP-LC retention time of 1230 s.

For `CC(C)CC(C(=O)N1CCN(c2ccccn2)CC1)N1Cc2ccccc2C1=O` (stereo not drawn), the RP-LC retention time amounted to 650 s.

For the molecule `COc1ccc(-c2ccnc3ncnn23)c(F)c1`, the RP-LC retention time came to 681 s.

Molecule `Nc1nc(-c2ccccc2)nn1C(=O)C1CC1` showed an RP-LC retention time of 800 s.

In the case of `O=C1CCCN1CCCN1C(=O)[C@H]2CN(Cc3cccc(F)c3F)C[C@H]2C1=O`, the RP-LC retention time was found to be 625 s.

Molecule `Cc1cc(C)cc(NC(=O)Nc2nccn(-c3cccc(Cl)c3)c2=O)c1` came in with an RP-LC retention time of 1110 s.

For the molecule `CC(C)NC(=O)c1cc2cc(Br)ccc2[nH]1`, the RP-LC retention time amounted to 879 s.

In the case of `O=C(Cc1nc(-c2ccccn2)n[nH]1)Nc1ccc(F)c(F)c1`, the RP-LC retention time stood at 651 s.

Molecule `COc1ccc(NC(=O)c2cc3c(=O)n(CC(C)C)c4ccccc4n3n2)cc1F` yielded an RP-LC retention time of 1070 s.

Turning to `COc1ccc(N2CCN(C(=O)C3CCCN(C(=O)c4[nH]c(C)cc4C)C3)CC2)cc1` (stereo not drawn), the RP-LC retention time stood at 763 s.

Regarding `Cn1c(N2CCN(C(=O)c3cccc(Br)c3)CC2)cc(=O)n(C)c1=O`, the RP-LC retention time was determined as 672 s.

`COC(=O)c1ccc(-c2nc3cnccn3c2NC2CCCCC2)cc1` yielded an RP-LC retention time of 973 s.

Turning to `CCC(C)(C)NC(=O)c1c(C)oc2ccn(Cc3ccc(F)cc3)c(=O)c12`, the RP-LC retention time is 1140 s.

As to `Cc1ccc2c(=O)cc(C(=O)NCC(c3ccccc3)N(C)C)oc2c1C` (stereo not drawn), the RP-LC retention time came out at 636 s.

In turn, `CCN1c2ccc(C)cc2C(=O)NC12CCN(C(=O)c1ccc3c(c1)OCO3)CC2` gave an RP-LC retention time of 788 s.

As for `O=C(Nc1ccccc1OC(F)F)c1ccc(S(=O)(=O)N2CCOCC2)cc1`, the RP-LC retention time amounted to 841 s.

`CCOc1ccc(NS(=O)(=O)c2cc3c(s2)CCN(C(=O)C2CCC2)C3)cc1` yielded an RP-LC retention time of 896 s.

Take `CC(C)N1C(=O)c2cccnc2Sc2cc(C(=O)NC3CCCC3)ccc21`: the RP-LC retention time came to 812 s.

Molecule `Cc1cc(N2CCOCC2)nc(N2CCN(C(=O)Cc3ccc(F)cc3)CC2)n1` had an RP-LC retention time of 566 s.

`CCc1ccc(NC(=O)C2CCN(S(=O)(=O)c3ccc4c(c3)sc(=O)n4CC)CC2)cc1` registered an RP-LC retention time of 953 s.

Regarding `CCOc1ccc(NC(=O)Cn2ccc3ccc(-c4nnc(CC)o4)cc32)cc1`, the RP-LC retention time was 851 s.

With `O=C(Nc1cnc(N2CCCC2)nc1)c1ccc(Br)o1`, the RP-LC retention time is 732 s.

Consider `Cc1ccc(CNC(=O)c2cn3c(n2)COCC3)cc1C`, for which the RP-LC retention time came to 704 s.

On to `O=C(NCc1cccs1)C1CCN(c2cnc(N3CCCCCC3)nc2)CC1`, for which the RP-LC retention time was determined as 732 s.

On to `CCN(CC)C(=O)c1ccc(-c2nnc3ccc(NC(=O)C4CC4)cn23)cc1`, for which the RP-LC retention time amounted to 699 s.

Turning to `COc1ccccc1-c1csc(-c2nnn(-c3ccccc3)c2N)n1`, the RP-LC retention time is 1070 s.

`CC(C)n1c(N2CCN(C(=O)COc3ccc(Cl)cc3)CC2)cc(=O)n(C(C)C)c1=O` returned an RP-LC retention time of 928 s.

Turning to `Cc1cc(C)n(Cc2nc(-c3ccc(NC(=O)c4ccc(C)s4)cc3)oc2C)n1`, the RP-LC retention time came to 955 s.

In turn, `COc1ccccc1OCC(O)Cn1c(C2CC(=O)N(c3ccccc3)C2)nc2ccccc21` (stereo not drawn) displayed an RP-LC retention time of 736 s.

`O=C(CCn1nnc2cc(-c3noc(-c4ccccc4Br)n3)ccc21)N1CCCC1` registered an RP-LC retention time of 954 s.

As to `CCOc1ccccc1C(=O)N1CCN=C1SCc1ccc([N+](=O)[O-])cc1`, the RP-LC retention time turned out to be 898 s.

In turn, `CCCCC(C)C(=O)N1CCCN(C2=NS(=O)(=O)C(c3ccc(CC)cc3)=C2C)CC1` (stereo not drawn) came in with an RP-LC retention time of 1020 s.

`Cc1cccc(N2CCN(C(=O)Cn3c(=O)c4nncn4c4ncccc43)CC2)c1C` showed an RP-LC retention time of 791 s.

In the case of `O=C(NCCc1cccs1)C1CCCN(c2nc3ccsc3c(=O)n2Cc2ccccc2)C1` (stereo not drawn), the RP-LC retention time was determined as 949 s.

`COc1ccc(-c2noc(CN3N=NC4C(=O)N(c5cccc(F)c5)C(=O)C43)n2)cc1OC` (stereo not drawn) returned an RP-LC retention time of 1260 s.

The molecule `O=C(N[C@@H]1CN(Cc2ccccc2)C[C@H]1CO)C1(c2ccccc2)CC1` came in with an RP-LC retention time of 652 s.

Consider `O=C(C1CCN(S(=O)(=O)Cc2ccc(Cl)cc2)CC1)N1CCOCC1`, for which the RP-LC retention time came out at 725 s.

The molecule `CN(CCNC(=O)c1cc(=O)n(C)c2c1c(=O)n(C)c(=O)n2C)C1CCCCC1` showed an RP-LC retention time of 624 s.

`C#Cc1cccc(Nc2ncnc3cc(OCCOC)c(OCCO)cc23)c1` showed an RP-LC retention time of 663 s.

In the case of `O=C(NCc1cc(F)cc(F)c1)C1CCN(c2cc(N3CCSCC3)ncn2)CC1`, the RP-LC retention time was found to be 679 s.

`Cc1ccc(CNC(=O)c2cc3n(n2)CC(C)(C(=O)NCc2ccc(C)cc2)N(C)C3=O)cc1` (stereo not drawn): the RP-LC retention time came to 823 s.

`CCOc1cc(-c2nc(C3CC(=O)N(c4ccc(Cl)cc4)C3)no2)cc(OCC)c1OCC` (stereo not drawn) registered an RP-LC retention time of 1240 s.

`O=C(Cn1c(=O)cc(C(=O)N2CCCC2)c2ccccc21)Nc1cc(F)ccc1F` had an RP-LC retention time of 737 s.

`Cc1ccc(-n2c(=O)n(CC(=O)Nc3cccc(C)c3C)c3cccnc32)cc1` yielded an RP-LC retention time of 907 s.

In turn, `CCCn1ccc2sc(C)c(C(=O)NCc3cccc(Cl)c3)c2c1=O` registered an RP-LC retention time of 990 s.

With `CN(CC(=O)N1CCOCC1)c1nc(C2CC2)nc2c1CCC2`, the RP-LC retention time worked out at 560 s.

`CC(=O)NCc1csc(C2CCN(C(=O)c3cc(F)ccc3F)CC2)n1` showed an RP-LC retention time of 652 s.

`Cc1cccc(Sc2nccnc2N2CCCC(C(=O)N3CCCC3)C2)c1` (stereo not drawn) displayed an RP-LC retention time of 1010 s.

Regarding `Cc1ccc(NC(=O)Cn2nc(C(=O)N3CCOCC3)c3ccccc32)c(Br)c1`, the RP-LC retention time is 825 s.
